The assay deals with Cyclin-dependent kinase 2 (Homo sapiens, UniProt P24941).

By IC50 is commonly meant the concentration that inhibits the measured activity by half. High values mean a need for much substance, low ones inhibition by little substance. For the molecule `O=C(NC1=NNC2=CC=CC21)C1CC1` (stereo unspecified), the IC50 stood at 5 nM.

The record behind these values is ChEMBL document CHEMBL1156672, “Selectivity criterion for pyrazolo[3,4-b]pyrid[az]ine derivatives as GSK-3 inhibitors: CoMFA and molecular docking studies” (Eur J Med Chem, 2008).
